These results are taken from ChEMBL document CHEMBL5052829, “Arf6 inhibitors and related methods” (2021).

Broadly, the solubility is the concentration that dissolves in the medium under given conditions. In general, clearance refers to the rate of elimination divided by the concentration. Usually Vd stands for the apparent volume that relates the amount in the body to the concentration in plasma or blood.

Structures are written as SMILES. Calls of active or inactive are those of the source. The rule behind the calls is not given here.

In data set [1] the test system is Mus musculus. Put plainly: Antiinflammatory activity in mouse model of LPS-induced acute lung injury assessed as reduction in BALF protein at 5 mg/kg, ip administered immediately or 6 hrs after LPS stimulation. It counts as functional. The arrangement: scale not given: the % may be the effect or the level left.
A short description of data set [2]: Solubility in water. It counts as physicochemical.
Data set [3] deals with Mus musculus. Put plainly: Antiinflammatory activity in mouse model of LPS-induced acute lung injury assessed as reduction in total cell count in BALF at 64 mg/kg, iv. Type of data set: functional, organism-based.
A short description of data set [4]: Toxicity in multidrug-resistant Pseudomonas aeruginosa infected mouse model of pneumonia assessed as improvement in animal survival at 64 mg/kg, sc administered once daily for 6 days. Conditions: in vivo, 144 h, time 6 day. It counts as organism-based.
In data set [5] the test system is Mus musculus. Put plainly: Antiinflammatory activity in mouse model of LPS-induced acute lung injury assessed as reduction in BALF protein at 64 mg/kg, iv. It counts as functional, organism-based.
For data set [6], the system named is Mus musculus. Kind of data set: Antiinflammatory activity in mouse model of LPS-induced acute lung injury assessed as reduction in BALF protein at 38 mg/kg, iv. Type of data set: functional, organism-based.
Data set [7] has as its system Mus musculus. Put plainly: Antiinflammatory activity in mouse model of LPS-induced acute lung injury assessed as reduction in total cell count in BALF at 38 mg/kg, iv. Type of data set: functional, organism-based.
Data set [8] can be described thus: Toxicity in multidrug-resistant Pseudomonas aeruginosa infected mouse model of pneumonia assessed as improvement in animal survival at 38 mg/kg, sc administered once daily for 6 days. It counts as organism-based. Particulars: in vivo, 144 h, time 6 day.
Data set [9] is described as follows: Clearance in Sprague-Dawley rats at 1.4 mg/kg, iv. It counts as ADME, organism-based. Particulars: rat, in vivo.
Data set [10] is described as follows: Terminal half-life in Sprague-Dawley rats at 1.4 mg/kg, iv. Particulars: rat, in vivo, read-out: beta t1/2 (converted). Type of data set: ADME, organism-based.
Data set [11] in a line: Volume of distribution in Sprague-Dawley rats at 1.4 mg/kg, iv. It counts as ADME, organism-based. Conditions: rat, in vivo.

`C[C@@H]1C[C@H]2[C@@H]3CCC4=CC(=O)C=C[C@]4(C)[C@@]3(F)[C@@H](O)C[C@]2(C)[C@@]1(O)C(=O)CO` [DEXAMETHASONE]: in [1], the Activity turned out to be 37%.

As to `Cc1ccc(-c2c[nH]c3c(-c4ccc(Cl)cc4)c(Cc4ccccc4)nn3c2=O)c(O)c1`, the solubility in [2] was below 1 µM.

`Cc1ccc(-c2cc(=O)[nH]c3c(-c4ccc(Cl)cc4)c(Cc4ccccc4)nn23)c(OP(=O)([O-])[O-])c1.[Na+].[Na+]` registered a solubility in data set [2] above 50 µM.

In [2], `O=c1c(-c2ccc(F)cc2OP(=O)([O-])[O-])c[nH]c2c(-c3ccc(Cl)cc3)c(Cc3ccccc3)nn12.[Na+].[Na+]` yielded a solubility above 50 µM.

Take `Cc1ccc(-c2c[nH]c3c(-c4ccc(Cl)cc4)c(Cc4ccccc4)nn3c2=O)c(OP(=O)([O-])[O-])c1.[Na+].[Na+]`: the result in data set [3], in data set [5], in [6] and in [7] was Active. Further, the Activity entry in data set [4] and in data set [8] was “Non-Toxic” throughout. Besides, in [2], the solubility was above 50 µM.

Consider `NCCCC[C@H](N)C(=O)Oc1cc([N+](=O)[O-])ccc1-c1cc(=O)[nH]c2c(-c3ccc(Cl)cc3)c(Cc3ccccc3)nn12`, for which the clearance in [9] is 0.417 mL/min/kg. Further, the half-life in data set [10] is 10.9 h. In data set [11], this compound showed a Vd of 0.383 L/kg.

In turn, `Cc1ccc(-c2cc(=O)[nH]c3c(-c4ccc(Cl)cc4)c(Cc4ccccc4)nn23)c(OP(=O)(O)O)c1` yielded a solubility in [2] above 50 µM.
